Where two headings read alike, the source gives them in different places. Starred links: 1 amine or outer side, 2 acyl side, 3 side chain; linkers in the order of their positions; H or OH if unused. Positions of bridges follow the written chain, without caps; N, C: chain ends. Non-standard residues stand in square brackets, D forms with d. Residues, ends and D or L forms follow the SMILES beside them. hCys = N[C@@H](CCS)C(=O)O; Dab = NCC[C@H](N)C(=O)O; X1 = O=C(C[*:2])[*:1]; X2 = O=C(C[*:1])[*:2]
Key:
human integrin αvβ5 = human integrin αvβ5 (Homo sapiens, UniProt P06756+P18084); assay: Evaluation of integrin binding property (surface plasmon resonance, Biacore 3000, immobilized cyclic peptide)
Chain of human integrin αvβ5 (P06756 31-1048): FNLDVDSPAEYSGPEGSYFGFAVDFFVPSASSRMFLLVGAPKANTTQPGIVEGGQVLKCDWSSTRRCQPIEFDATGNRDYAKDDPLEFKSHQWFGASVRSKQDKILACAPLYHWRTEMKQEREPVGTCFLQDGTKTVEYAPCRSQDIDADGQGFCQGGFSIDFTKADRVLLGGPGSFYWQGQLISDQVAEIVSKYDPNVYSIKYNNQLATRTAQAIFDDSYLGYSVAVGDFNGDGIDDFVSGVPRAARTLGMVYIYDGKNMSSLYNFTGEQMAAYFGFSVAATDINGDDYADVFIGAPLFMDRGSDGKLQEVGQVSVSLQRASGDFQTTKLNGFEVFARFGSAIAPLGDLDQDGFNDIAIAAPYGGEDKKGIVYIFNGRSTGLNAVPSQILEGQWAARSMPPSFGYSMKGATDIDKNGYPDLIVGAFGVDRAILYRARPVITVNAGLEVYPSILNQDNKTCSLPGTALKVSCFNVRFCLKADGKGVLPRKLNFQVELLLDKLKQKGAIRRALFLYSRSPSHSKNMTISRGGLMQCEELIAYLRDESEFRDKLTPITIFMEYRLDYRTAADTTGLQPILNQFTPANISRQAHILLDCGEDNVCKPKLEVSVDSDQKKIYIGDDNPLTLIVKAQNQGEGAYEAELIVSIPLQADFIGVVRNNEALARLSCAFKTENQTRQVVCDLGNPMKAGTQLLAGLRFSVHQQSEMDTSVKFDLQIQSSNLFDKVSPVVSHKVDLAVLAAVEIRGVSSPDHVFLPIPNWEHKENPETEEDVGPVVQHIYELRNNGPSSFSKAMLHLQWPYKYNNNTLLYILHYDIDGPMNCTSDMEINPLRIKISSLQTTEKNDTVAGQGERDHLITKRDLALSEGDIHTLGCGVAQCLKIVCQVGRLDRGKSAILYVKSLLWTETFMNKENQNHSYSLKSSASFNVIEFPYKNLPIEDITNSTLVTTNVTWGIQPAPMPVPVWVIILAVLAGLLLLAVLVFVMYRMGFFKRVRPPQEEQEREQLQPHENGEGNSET
Chain of human integrin αvβ5 (P18084 24-799): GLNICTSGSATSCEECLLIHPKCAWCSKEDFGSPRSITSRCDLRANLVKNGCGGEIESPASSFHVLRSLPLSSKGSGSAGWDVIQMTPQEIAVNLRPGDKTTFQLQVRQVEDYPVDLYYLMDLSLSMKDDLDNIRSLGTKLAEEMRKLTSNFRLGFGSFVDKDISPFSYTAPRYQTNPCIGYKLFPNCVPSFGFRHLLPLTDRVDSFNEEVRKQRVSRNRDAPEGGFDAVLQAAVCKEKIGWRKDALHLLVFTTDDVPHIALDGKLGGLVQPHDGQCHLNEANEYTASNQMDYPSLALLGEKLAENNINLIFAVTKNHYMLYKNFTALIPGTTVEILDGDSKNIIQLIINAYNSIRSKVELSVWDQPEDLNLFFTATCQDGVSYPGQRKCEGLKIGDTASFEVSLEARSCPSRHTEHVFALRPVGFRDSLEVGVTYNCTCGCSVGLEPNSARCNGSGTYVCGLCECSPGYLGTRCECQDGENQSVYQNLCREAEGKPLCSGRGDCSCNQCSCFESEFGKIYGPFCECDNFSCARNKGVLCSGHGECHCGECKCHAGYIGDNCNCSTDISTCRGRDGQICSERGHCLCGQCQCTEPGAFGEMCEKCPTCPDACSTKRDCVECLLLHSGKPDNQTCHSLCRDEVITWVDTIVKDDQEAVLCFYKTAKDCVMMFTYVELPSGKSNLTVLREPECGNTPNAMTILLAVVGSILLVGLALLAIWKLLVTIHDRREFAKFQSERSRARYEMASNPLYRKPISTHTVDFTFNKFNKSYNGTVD
Method in brief: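 SPR with cyclic peptide amine-coupled via EDC/NHS to a CM5 chip, blank channel as reference. Integrin αvβ5 at 30, 100, 300 and 1,000 nM injected 10 min at 25 °C in HEPES buffer pH 7.4 with 5 mM MgCl2, 30 min buffer flow, EDTA regeneration; Kd from reference-subtracted signals, graded by category.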

[1] = Evaluation of molecule stability (alkali treatment, residual rate by LC/MS); type: physicochemical; conditions: for Stability (molecule stability, residual rate of the cyclic peptide rank): alkali treatment, residual rate by LC/MS; for Performance evaluation: Stability (residual rate of cyclic peptide after alkali treatment): 500 μM peptide aqueous solution plus equivalent of 1 M sodium hydroxide, 15° C., 3 hours, LC/MS peak area
Method in brief: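 500 μM aqueous cyclic peptide mixed with an equal volume of 1 M NaOH and held 3 h at 15 °C. Residual rate is total LC/MS peak area after treatment relative to untreated (100%), using a C18 column, pH 3 ammonium formate/acetonitrile gradient, 45 °C, ESI±.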

[2] = surface plasmon resonance, immobilized cyclic peptide, human integrin αvβ5, read-out: Binding activity (integrin binding property, dissociation constant rank)
[3] = SPR, 25° C., HEPES buffer with 5 mM magnesium chloride, integrin 30-1,000 nM, read-out: Performance evaluation: Binding activity (dissociation constant between the cyclic peptide and human integrin αvβ5)

For CC(C)[C@@H]1NC(=O)[C@@H](NC(=O)[C@H](CCCCN)NC(=O)[C@H](CCCCN)NC(=O)[C@@H](N)CCCCN)CCSCC(=O)NCC[C@@H](C(=O)O)NC(=O)[C@H](C)NC(=O)[C@H](Cc2ccccc2)NC(=O)[C@H]([C@@H](C)O)NC(=O)[C@H](CC(=O)O)NC(=O)CNC(=O)[C@H](CCCNC(=N)N)NC(=O)[C@H](CO)NC1=O [Cyclic peptide 149, KKK-(Hcy)-VSRGDTFA(Dab(acetyl))] (H-KKK[hCys]VSRGDTFA[Dab]-OH; linker 4-13 via X2), which Kd (human integrin αvβ5; [2]) is on record?
Its Kd is under 50 nM.

And the “Stability (molecule stability, residual rate of the cyclic peptide rank)” value [1]?
Its value is “A (The residual rate of the cyclic peptide is 70% or more.)”.

Which Kd (human integrin αvβ5; [3]) does the source give for C[C@H](NC(=O)[C@@H]1CCNC(=O)CSCC[C@H](NC(=O)CNC(=O)[C@H](CCCCN)NC(=O)[C@H](CCCCN)NC(=O)[C@@H](N)CCCCN)C(=O)N[C@@H](CCC(=O)O)C(=O)N2CCC[C@H]2C(=O)N[C@@H](CCCNC(=N)N)C(=O)NCC(=O)N[C@@H](CC(=O)O)C(=O)N[C@@H]([C@@H](C)O)C(=O)N[C@@H](Cc2ccccc2)C(=O)N[C@@H](CCCNC(=N)N)C(=O)N1)C(=O)O [Cyclic peptide 69, KKKG-(Hcy)-EPRGDTFR(Dab(acetyl))A] (H-KKKG[hCys]EPRGDTFR[Dab]A-OH; linker 5-14 via X2) here?
The Kd was under 50 nM.

And the “Performance evaluation: Stability (residual rate of cyclic peptide after alkali treatment)” value [1]?
The value was “A (The residual rate of the cyclic peptide is 70% or more.)”.

Which results are given for CC(C)[C@@H]1NC(=O)[C@@H](NC(=O)CNC(=O)[C@H](CCCCN)NC(=O)[C@H](CCCCN)NC(=O)[C@@H](N)CCCCN)CCSCC(=O)NCC[C@@H](C(=O)N[C@@H](C)C(=O)O)NC(=O)[C@H](CCCNC(=N)N)NC(=O)[C@H](Cc2ccccc2)NC(=O)[C@H]([C@@H](C)O)NC(=O)[C@H](CC(=O)O)NC(=O)CNC(=O)[C@H](CCCNC(=N)N)NC(=O)[C@@H]2CCCN2C1=O [Cyclic peptide 70, KKKG-(Hcy)-VPRGDTFR(Dab(acetyl))A] (H-KKKG[hCys]VPRGDTFR[Dab]A-OH; linker 5-14 via X2)?
Kd (human integrin αvβ5; [3]): < 50 nM; Performance evaluation: Stability (residual rate of cyclic peptide after alkali treatment) [1]: A (The residual rate of the cyclic peptide is 70% or more.)

Which Kd (human integrin αvβ5; [2]) does the source give for CC(C)[C@@H]1NC(=O)[C@@H](NC(=O)[C@H](C)NC(=O)[C@H](CCCCN)NC(=O)[C@H](CCCCN)NC(=O)[C@@H](N)CCCCN)CCSCC(=O)NCC[C@@H](C(=O)N[C@@H](C)C(=O)O)NC(=O)[C@H](C)NC(=O)[C@H](Cc2ccccc2)NC(=O)[C@H]([C@@H](C)O)NC(=O)[C@H](CC(=O)O)NC(=O)CNC(=O)[C@H](CCCNC(=N)N)NC(=O)[C@@H]2CCCN2C1=O [Cyclic peptide 108, KKKA-(Hcy)-VPRGDTFA(Dab(acetyl))A] (H-KKKA[hCys]VPRGDTFA[Dab]A-OH; linker 5-14 via X2) here?
The Kd was under 50 nM.

And the “Stability (molecule stability, residual rate of the cyclic peptide rank)” value [1]?
Its value is “A (The residual rate of the cyclic peptide is 70% or more.)”.

With N=C(N)NCCC[C@@H]1NC(=O)[C@H](Cc2ccc(O)cc2)NC(=O)[C@H](CC(N)=O)NC(=O)[C@H](CC(=O)O)NC(=O)CNC(=O)[C@H](CCCNC(=N)N)NC(=O)[C@@H]2CCCN2C(=O)[C@H](CCC(=O)O)NC(=O)[C@@H](NC(=O)[C@H](CCCCN)NC(=O)[C@H](CCCCN)NC(=O)[C@@H](N)CCCCN)CCSCC(=O)NCC[C@@H](C(N)=O)NC1=O [Cyclic peptide 49, KKK-(Hcy)-EPRGDNYR(Dab(acetyl))] (H-KKK[hCys]EPRGDNYR[Dab]-NH2; linker 4-13 via X2) as the compound, how does the Kd (human integrin αvβ5; [3]) read?
The Kd was 50 to 100 nM.

What about the “Performance evaluation: Stability (residual rate of cyclic peptide after alkali treatment)” value [1] of the same compound?
Its value is “A (The residual rate of the cyclic peptide is 70% or more.)”.

What does the source list for CC[C@H](C)[C@@H]1NC(=O)[C@@H](NC(=O)CNC(=O)[C@H](CCCCN)NC(=O)[C@H](CCCCN)NC(=O)[C@@H](N)CCCCN)CCSCC(=O)NCCCC[C@@H](C(=O)N[C@@H](C)C(=O)O)NC(=O)[C@H](CCCNC(=N)N)NC(=O)[C@H](Cc2ccccc2)NC(=O)[C@H]([C@@H](C)O)NC(=O)[C@H](CC(=O)O)NC(=O)CNC(=O)[C@H](CCCNC(=N)N)NC(=O)[C@@H]2CCCN2C1=O [Cyclic peptide 116, KKKG-(Hcy)-IPRGDTFR(Lys(acetyl))A] (H-KKKG[hCys]IPRGDTFRKA-OH; linker 5-14 via X2)?
Kd (human integrin αvβ5; [2]): < 50 nM; Stability (molecule stability, residual rate of the cyclic peptide rank) [1]: A (The residual rate of the cyclic peptide is 70% or more.)

With CC[C@H](C)[C@@H]1NC(=O)[C@@H](NC(=O)[C@H](C)NC(=O)[C@H](CCCCN)NC(=O)[C@H](CCCCN)NC(=O)[C@@H](N)CCCCN)CCSCC(=O)NCC[C@@H](C(=O)O)NC(=O)[C@H](C)NC(=O)[C@H](Cc2ccccc2)NC(=O)[C@H](CO)NC(=O)[C@H](CC(=O)O)NC(=O)CNC(=O)[C@H](CCCNC(=N)N)NC(=O)[C@@H]2CCCN2C1=O [Cyclic peptide 162, KKKA-(Hcy)-IPRGDSFA(Dab(acetyl))] (H-KKKA[hCys]IPRGDSFA[Dab]-OH; linker 5-14 via X2) as the compound, how does the Kd (human integrin αvβ5; [2]) read?
The Kd was under 50 nM.

And the “Stability (molecule stability, residual rate of the cyclic peptide rank)” value [1]?
Its value is “A (The residual rate of the cyclic peptide is 70% or more.)”.

With C[C@H](NC(=O)[C@@H]1CCNC(=O)CSCC[C@H](NC(=O)[C@H](CCCCN)NC(=O)[C@H](CCCCN)NC(=O)[C@@H](N)CCCCN)C(=O)N[C@@H](CC(=O)O)C(=O)N2CCC[C@H]2C(=O)N[C@@H](CCCNC(=N)N)C(=O)NCC(=O)N[C@@H](CC(=O)O)C(=O)N[C@@H](CC(N)=O)C(=O)N[C@@H](Cc2ccccc2)C(=O)N[C@@H](CCCNC(=N)N)C(=O)N1)C(=O)O [Cyclic peptide 22, KKK-(Hcy)-DPRGDNFR(Dab(acetyl))A] (H-KKK[hCys]DPRGDNFR[Dab]A-OH; linker 4-13 via X2) as the compound, how does the Kd (human integrin αvβ5; [3]) read?
Its Kd is 50 to 100 nM.

What about the “Performance evaluation: Stability (residual rate of cyclic peptide after alkali treatment)” value [1] of the same compound?
The value was “A (The residual rate of the cyclic peptide is 70% or more.)”.

For CC(C)[C@@H]1NC(=O)[C@@H](NC(=O)[C@H](C)NC(=O)[C@H](CCCCN)NC(=O)[C@H](CCCCN)NC(=O)[C@@H](N)CCCCN)CCNC(=O)CSC[C@@H](C(=O)N[C@@H](C)C(=O)O)NC(=O)[C@H](C)NC(=O)[C@H](Cc2ccccc2)NC(=O)[C@H]([C@@H](C)O)NC(=O)[C@H](CC(=O)O)NC(=O)CNC(=O)[C@H](CCCNC(=N)N)NC(=O)[C@@H]2CCCN2C1=O [Cyclic peptide 142, KKKA(Dab(acetyl))VPRGDTFA(C)A] (H-KKKA[Dab]VPRGDTFACA-OH; linker 5-14 via X1), which Kd (human integrin αvβ5; [2]) is on record?
The Kd was under 50 nM.

And the “Stability (molecule stability, residual rate of the cyclic peptide rank)” value [1]?
Its value is “C (The residual rate of the cyclic peptide is 30% or more and less than 50%.)”.

Which results are given for C[C@H](NC(=O)[C@@H]1CCNC(=O)CSCC[C@H](NC(=O)[C@H](C)NC(=O)[C@H](CCCCN)NC(=O)[C@H](CCCCN)NC(=O)[C@@H](N)CCCCN)C(=O)N[C@@H]([C@@H](C)O)C(=O)N[C@@H]([C@@H](C)O)C(=O)N[C@@H](CCCNC(=N)N)C(=O)NCC(=O)N[C@@H](CC(=O)O)C(=O)N[C@@H](CO)C(=O)N[C@@H](Cc2ccccc2)C(=O)N[C@@H](C)C(=O)N1)C(=O)O [Cyclic peptide 161, KKKA-(Hcy)-TTRGDSFA(Dab(acetyl))A] (H-KKKA[hCys]TTRGDSFA[Dab]A-OH; linker 5-14 via X2)?
Kd (human integrin αvβ5; [2]): 50 to 100 nM; Stability (molecule stability, residual rate of the cyclic peptide rank) [1]: A (The residual rate of the cyclic peptide is 70% or more.)

Which results are given for CC(C)[C@@H]1NC(=O)[C@@H](NC(=O)[C@H](C)NC(=O)[C@H](CCCCN)NC(=O)[C@H](CCCCN)NC(=O)[C@@H](N)CCCCN)CCNC(=O)CSCC[C@@H](C(=O)N[C@@H](C)C(=O)O)NC(=O)[C@H](C)NC(=O)[C@H](Cc2ccccc2)NC(=O)[C@H]([C@@H](C)O)NC(=O)[C@H](CC(=O)O)NC(=O)CNC(=O)[C@H](CCCNC(=N)N)NC(=O)[C@@H]2CCCN2C1=O [Cyclic peptide 122, KKKA(Dab(acetyl))VPRGDTFA-(Hcy)-A] (H-KKKA[Dab]VPRGDTFA[hCys]A-OH; linker 5-14 via X1)?
Kd (human integrin αvβ5; [2]): < 50 nM; Stability (molecule stability, residual rate of the cyclic peptide rank) [1]: A (The residual rate of the cyclic peptide is 70% or more.)

With CC[C@H](C)[C@@H]1NC(=O)[C@@H](NC(=O)CNC(=O)[C@H](CCCCN)NC(=O)[C@H](CCCCN)NC(=O)[C@@H](N)CCCCN)CCSCC(=O)NCC[C@@H](C(=O)N[C@@H](C)C(=O)O)NC(=O)[C@H](CCCNC(=N)N)NC(=O)[C@H](Cc2ccccc2)NC(=O)[C@H]([C@@H](C)O)NC(=O)[C@H](CC(=O)O)NC(=O)CNC(=O)[C@H](CCCNC(=N)N)NC(=O)[C@@H]2CCCN2C1=O [Cyclic peptide 54, KKKG-(Hcy)-IPRGDTFR(Dab(acetyl))A] (H-KKKG[hCys]IPRGDTFR[Dab]A-OH; linker 5-14 via X2) as the compound, how does the Kd (human integrin αvβ5; [3]) read?
The Kd was under 50 nM.

What about the “Performance evaluation: Stability (residual rate of cyclic peptide after alkali treatment)” value [1] of the same compound?
The value was “A (The residual rate of the cyclic peptide is 70% or more.)”.

Which Kd (human integrin αvβ5; [3]) does the source give for CC(C)C[C@@H]1NC(=O)[C@@H](NC(=O)CNC(=O)[C@H](CCCCN)NC(=O)[C@H](CCCCN)NC(=O)[C@@H](N)CCCCN)CCSCC(=O)NCC[C@@H](C(=O)N[C@@H](C)C(=O)O)NC(=O)[C@H](CCCNC(=N)N)NC(=O)[C@H](Cc2ccccc2)NC(=O)[C@H]([C@@H](C)O)NC(=O)[C@H](CC(=O)O)NC(=O)CNC(=O)[C@H](CCCNC(=N)N)NC(=O)[C@@H]2CCCN2C1=O [Cyclic peptide 71, KKKG-(Hcy)-LPRGDTFR(Dab(acetyl))A] (H-KKKG[hCys]LPRGDTFR[Dab]A-OH; linker 5-14 via X2) here?
Its Kd is under 50 nM.

And the “Performance evaluation: Stability (residual rate of cyclic peptide after alkali treatment)” value [1]?
Its value is “A (The residual rate of the cyclic peptide is 70% or more.)”.
